Source: US5310745A, “Antiviral compounds” (priority 1992, dated 1994)
Read-outs that look alike come from different tables or passages of the source.

How the values were obtained:
[1] = system: Sheep choroid plexus (SCP) cells; assay: Toxicity of compounds in control wells without virus, graded morphologically; format: cell-based; set-up: key: 0: no toxicity; 4: total cell lysates; conditions: 0 to 4 scale, Table 1
Procedure: (§1) Sheep choroid plexus (SCP) cells were obtained from American Type Culture Collection (ATCC) catalogue number CRL 1700 and were routinely passaged in vitro in Dulbecco's Modified Eagles (DME) medium supplemented with 20% fetal bovine serum (FBS). SCP cells were passaged once per week at a 1:2 or 1:3 split ratio. Visna was titrated by plaque assay in six-well plates. Virus pools were stored at -70° C.
(§2) SCP cells were cultured in 6-well plates to confluence. Wells were washed two times with serum free Minimal Essential Medium (MEM) to remove FBS. 0.2 ml of virus was added per well in MEM supplemented with 4 mM glutamine and gentamycin. After 1 hour adsorption, the virus was aspirated from each well. The appropriate concentration of each compound in 5 ml of Medium 199 (M-199) supplemented With 2% lamb serum, 4 mM glutamine, 0.5% agarose and gentamycin was added to each well. Cultures were incubated at 37° C. in a humidified 5% CO2 incubator for 3-4 weeks. To terminate the test: cultures were fixed in 10% formalin, the agar removed, the monolayers stained with 1% crystal violet and plaques counted. Each compound concentration was run in triplicate. […] 0 is no toxicity observed while 4 is total lysing of the cell monolayer.

[2] = system: Sheep choroid plexus (SCP) cells; assay: as above; format: cell-based; conditions: 0 to 4 scale, Table 1
Procedure: as §1, §2

visna virus = assay: Plaque reduction assay, inhibition of visna virus in vitro; format: cell-based; set-up: key to Antiviral Activity: A: active compound; I: inactive compound; conditions: Table 1
Description: Visna virus, a lentivirus genetically very similar to the AIDS virus, is pathogenic for sheep and goats. See Sonigo et al., Cell 42, 369-382 (1985); Haase, Nature 322, 130-136 (1986). Inhibition of visna virus replication in vitro as a useful model for human immunodeficiency virus (HIV) and its inhibition by test compounds has been described by Franket al., Antimicrobial Agents and Chemotherapy 31 (9), 1369-1374 (1987). The N-butyl derivative of 1,5-dideoxy-1,5-imino-D-glucitol, also referred to as n-butyl-deoxynojirimycin (N-Bu-DNJ), was used as a control standard for comparison with various novel compounds of this invention.
Various compounds as prepared above were tested for inhibition of visna virus in vitro in a plaque reduction assay as follows:
as §1, §2

HIV = conditions: cited from earlier work; for HIV inhibitory activity: disclosed in earlier patents/applications
[3] = Pharmacokinetic and metabolism study, Rhesus monkey; format: in vivo; conditions: monkey, oral, plasma and urine
Procedure: The parent tetrabutyrate compound consequently serves as an antivirally effective and useful pro-drug of the latter compound to which it is metabolized in the gut. […] The parent pro-drug was not detected. […] The oral bioactivity of the metabolite compound, measured as [^14 C]-metabolite compound, was determined to be between 28% and 50% in the Rhesus monkey, depending on the vehicle used (e.g., 0.5% methyl cellulose and 0.1% polysorbate in water). […] The blood levels of the metabolite compound, measured as part of a long term SIV infected monkey efficacy study, following oral dosing (high dose 750 mg/kg, low dose 250 mg/kg, administered every eight hours) with the pro-drug, yielded mean trough (cmin) plasma blood levels of the metabolite compound at eight hours post dosing of approximately 10 μg/mL and 6.8 μg/mL for the high and low doses, respectively.

Compound	Toxicity ([1]; 0.01 mM)	Toxicity ([2]; 0.1 mM)	Antiviral Activity (visna virus; 0.01 mM)	Antiviral Activity (visna virus; 0.1 mM)	Antiviral Activity (visna virus; 1.0 mM)	HIV inhibitory activity (HIV)	Toxicity ([1]; 1.0 mM)	also measured
CC(=O)OC[C@@H]1[C@@H](OC(C)=O)[C@H](OC(C)=O)[C@@H](OC(C)=O)CN1C(=O)CCc1ccccc1 [Example 20, 1,5-(Hydrocinnamoylimino)-1,5-dideoxy-D-glucitol, tetraacetate]	0	1	A	A	A			Toxicity ([2]; 1.0 mM): 2
CCCCN1C[C@H](O)[C@@H](O)[C@H](O)[C@H]1CO [N-Bu-DNJ, 1,5-(Butylimino)-1,5-dideoxy-D-glucitol, reference compound]	0	1	I	A	A	HIV inhibitory activity		HIV inhibitory activity (HIV; listed as N-butyl derivative of deoxynojirimycin): substantially more effective anti-HIV activity; Toxicity ([1]; 0.001 mM): 0; metabolic profiles of either radiolabeled compound (pro-drug, metabolite) [3]: the same in plasma and urine; Toxicity ([2]; 1.0 mM): 2; Antiviral Activity (visna virus; 0.001 mM): I
CN1C[C@H](O)[C@@H](O)[C@H](O)[C@H]1CO [Example 9, 1,5-(Methylimino)-1,5-dideoxy-D-glucitol]						HIV inhibitory activity		
Cc1cn([C@H]2C[C@H](N=[N+]=[N-])[C@@H](CO)O2)c(=O)[nH]c1=O [AZT, 3'-azido-3'-deoxythymidine]								inhibition of virus replication in vitro (HIV; in vitro): inhibit replication of the virus in vitro
CCCCN1C[C@H](OC(=O)CC)[C@@H](OC(=O)CC)[C@H](OC(=O)CC)[C@H]1COC(=O)CC [Example 17, 1,5-(Butylimino)-1,5-dideoxy-D-glucitol, tetrapropionate]			A	Toxic				Toxicity ([1]; 0.1 mM): 4; Toxicity ([2]; 0.01 mM): 2
OC[C@H]1NC[C@H](O)[C@@H](O)[C@@H]1O [deoxynojirimycin, 1,5-dideoxy-1,5-imino-D-glucitol]						HIV inhibitory activity		
CCCCCCCCCN1C[C@H](OC(C)=O)[C@@H](OC(C)=O)[C@H](OC(C)=O)[C@H]1COC(C)=O [Example 14, 1,5-(Nonylimino)-1,5-dideoxy-D-glucitol, tetraacetate]	0	2	A	A	Toxic		4	Toxicity ([1]; 0.001 mM): 0; Antiviral Activity (visna virus; 0.001 mM): A
CCCCN1C[C@H](OC(=O)c2ccccc2)[C@@H](OC(=O)c2ccccc2)[C@H](OC(=O)c2ccccc2)[C@H]1COC(=O)c1ccccc1 [Example 18, 1,5-(Butylimino)-1,5-dideoxy-D-glucitol, tetrabenzoate]		1		A	A		0	
CCCCN1C[C@H](OC(C)=O)[C@@H](OC(C)=O)[C@@H]2O[C@H](c3ccccc3)OC[C@H]21 [Example 24, 1,5-(Butylimino)-1,5-dideoxy-4R,6-O-(phenylmethylene)-D-glucitol, diacetate]					A		0	
CC(=O)OC[C@H]1NC[C@H](OC(C)=O)[C@@H](OC(C)=O)[C@@H]1OC(C)=O [Example 3, 1,5-Dideoxy-1,5-imino-D-glucitol, tetraacetate]					A		0	Toxicity ([1]; 0.5 mM): 0; Antiviral Activity (visna virus; 0.5 mM): A
